US20190161480A1, “Chemical Compounds” (GLAXOSMITHKLINE INTELLECTUAL PROPERTY DEVELOPMENT LIMITED, priority 2016, published 2019)
Entries after “also recorded” stand apart in the source; their conditions may differ.

Legend:
PI3Kδ [1] = molecular target: T1, PI3Kδ (Homo sapiens, UniProt O00329); experiment: Protein mass spectrometry: covalent adduct assessment and competition experiment; assay type: binding
Method: Compounds were incubated with 1 μM protein in a 10:1 inhibitor:protein ratio in buffer containing 50 mM HEPES, pH 7.0 (NaOH), 150 mM NaCl, 10 mM MgCl2, 2.3 mM cholate, 10 μM CHAPS. After the desired time, the assays were quenched with a 10% formic acid solution, and analysed by LCMS using an Agilent 6224 TOF LC/MS equipped with Agilent 1200 Series autosampler. Analytes were separated on a Polymer Labs (Agilent) PLRP-S column (50 mm×1 mm internal diameter, 5 μm particle size). LC conditions were 0.5 mL·min^−1 flow rate, 70° C., 10 μL injection volume. Gradient elution with (A) water containing 0.2% (v/v) formic acid and (B) acetonitrile containing 0.2% (v/v) formic acid. Gradient conditions were initially 10% B, increasing to 30% after 0.5 min, and then linearly to 80% B over 4.5 min, prior to a 1.2 min flush with 100% B and then a 1.9 minute equilibration with 10% B prior to the next injection. Mass spectra were then deconvoluted using Agilent MassHunter Qualitative Analysis version B.06.00 over the mass range 70-170 kDa to obtain the intact protein mass.
A potent reversible ATP competitive inhibitor was incubated with 1 μM protein in a 10:1 inhibitor:protein ratio in buffer containing 50 mM HEPES, pH 7.0 (NaOH), 150 mM NaCl, 10 mM MgCl2, 2.3 mM cholate, 10 μM CHAPS at room temperature. […] The assay was quenched at 5 min and analysed using the procedure detailed above.

PI3Kβ = PI3Kβ (Homo sapiens, UniProt P42338); experiment: PI3K HTRF assay, PI3K-beta; assay type: biochemical; conditions: read-out: pIC50 PI3Kβ (converted); also: 400 µM ATP
Chain of PI3Kβ (P42338 whole entry, species assumed): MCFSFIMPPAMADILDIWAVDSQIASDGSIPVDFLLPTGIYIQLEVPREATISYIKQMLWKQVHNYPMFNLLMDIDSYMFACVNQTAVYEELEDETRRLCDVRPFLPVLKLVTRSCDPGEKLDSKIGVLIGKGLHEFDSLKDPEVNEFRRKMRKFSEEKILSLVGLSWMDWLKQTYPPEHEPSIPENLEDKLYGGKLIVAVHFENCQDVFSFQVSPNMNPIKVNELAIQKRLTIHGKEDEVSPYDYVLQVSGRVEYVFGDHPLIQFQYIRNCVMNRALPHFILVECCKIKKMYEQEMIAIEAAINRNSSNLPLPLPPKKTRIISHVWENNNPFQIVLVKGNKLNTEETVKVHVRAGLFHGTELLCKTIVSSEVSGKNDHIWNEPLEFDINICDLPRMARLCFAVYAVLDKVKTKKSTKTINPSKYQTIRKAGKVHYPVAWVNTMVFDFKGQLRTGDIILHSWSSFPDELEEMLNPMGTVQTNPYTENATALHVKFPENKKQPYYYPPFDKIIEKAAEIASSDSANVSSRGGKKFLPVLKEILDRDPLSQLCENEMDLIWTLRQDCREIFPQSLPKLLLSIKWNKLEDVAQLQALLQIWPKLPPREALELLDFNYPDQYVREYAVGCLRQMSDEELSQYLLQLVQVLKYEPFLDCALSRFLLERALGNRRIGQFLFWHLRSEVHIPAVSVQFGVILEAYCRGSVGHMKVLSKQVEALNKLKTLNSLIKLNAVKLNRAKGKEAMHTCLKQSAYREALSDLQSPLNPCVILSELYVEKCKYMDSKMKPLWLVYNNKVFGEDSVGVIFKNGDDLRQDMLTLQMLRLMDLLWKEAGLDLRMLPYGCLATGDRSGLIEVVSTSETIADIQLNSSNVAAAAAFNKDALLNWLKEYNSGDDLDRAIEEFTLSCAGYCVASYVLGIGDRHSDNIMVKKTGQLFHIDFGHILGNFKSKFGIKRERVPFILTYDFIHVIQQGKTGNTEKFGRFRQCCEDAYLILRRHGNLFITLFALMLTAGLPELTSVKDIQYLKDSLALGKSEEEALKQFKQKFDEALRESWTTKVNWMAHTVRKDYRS
Chain of PI3Kβ (P27986 whole entry partner, species assumed): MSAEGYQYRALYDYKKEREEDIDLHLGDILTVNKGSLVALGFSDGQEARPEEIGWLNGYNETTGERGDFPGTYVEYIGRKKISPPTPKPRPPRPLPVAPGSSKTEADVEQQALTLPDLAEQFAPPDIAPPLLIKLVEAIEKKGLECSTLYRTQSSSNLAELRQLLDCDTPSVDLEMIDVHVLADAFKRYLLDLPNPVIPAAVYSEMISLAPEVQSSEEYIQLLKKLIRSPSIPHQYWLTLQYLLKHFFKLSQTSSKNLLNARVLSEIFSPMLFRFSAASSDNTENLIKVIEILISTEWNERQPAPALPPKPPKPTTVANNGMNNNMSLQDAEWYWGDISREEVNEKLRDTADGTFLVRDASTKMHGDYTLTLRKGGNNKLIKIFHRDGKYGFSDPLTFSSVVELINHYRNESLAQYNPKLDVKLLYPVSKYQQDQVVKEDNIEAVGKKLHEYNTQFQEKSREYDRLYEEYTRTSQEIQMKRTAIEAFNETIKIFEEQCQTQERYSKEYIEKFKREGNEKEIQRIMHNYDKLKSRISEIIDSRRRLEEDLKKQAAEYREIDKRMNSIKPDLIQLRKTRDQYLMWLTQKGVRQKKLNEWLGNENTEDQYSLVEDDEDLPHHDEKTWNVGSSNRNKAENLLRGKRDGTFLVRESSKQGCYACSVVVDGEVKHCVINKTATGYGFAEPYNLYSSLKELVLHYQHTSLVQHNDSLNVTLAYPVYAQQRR
Method: (§1) The binding of compounds to PI3K-alpha/beta/delta/gamma is determined by homogeneous time resolved fluorescence (HTRF) assays as follows;
(§2) Briefly, solid compound is dissolved in 100% DMSO at a concentration of 2 mM. Dilutions are prepared in 100% DMSO using a 1 in 4 serial step dilution. The dilutions are transferred to black low volume Greiner assay plates ensuring that the DMSO concentration is constant across the plate at 1% (0.1 μL/well).
(§3) PI3K Reaction Buffer (contains 50 mM HEPES pH 7.0 (NaOH), 150 mM NaCl, 10 mM MgCl2, 2.3 mM sodium cholate, […] CHAPS made up in milliQ water). Fresh DTT is added at a final concentration of 1 mM on the day of use.
(§4) Enzyme solutions: 1× PI3K Assay Buffer containing: • 550 pM PI3K-Alpha enzyme (275 pM final assay concentration) • 800 pM PI3K-Beta enzyme (400 pM final assay concentration) • 3 nM PI3K-Delta enzyme (1.5 nM final assay concentration) • 10 nM PI3K-Gamma enzyme (5 nM final assay concentration)
(§5) These concentrations are optimal to achieve a signal:background of between 1.5-4.5. The enzyme solution is added to columns 1-24 (3 μL/well) and plates are incubated for 15 minutes at room temperature.
(§6) Substrate solution: 1× PI3K Assay Buffer containing: • PI3K-Alpha: 500 μM ATP, 20 μM PIP2 and 120 nM biotin-PIP3.
(§7) This is added to all wells and plates are incubated for 1 hour at room temperature.
(§8) Detection solution: PI3K Detection Buffer (contains 50 mM HEPES pH 7.0 (HCl), 150 mM NaCl, 2.3 mM sodium cholate, 10 μM CHAPS, 240 mM potassium fluoride) containing 2 mM DTT (2× final assay concentration), 90 nM GRP-1 PH domain, 300 nM Streptavidin-APC and 24 nM Europium-anti-GST (6× final assay concentrations).
(§9) This is mixed left at room temperature (protected from light).
(§10) STOP solution: PI3K STOP Buffer (contains 50 mM HEPES pH 7.0 (HCl), 150 mM NaCl, 2.3 mM sodium cholate, 10 μM CHAPS, 150 mM EDTA).
(§11) Detection solution is diluted 1:1 with STOP solution and added to all wells (3 μL/well). Plates are covered and incubated on the bench for 45-60 minutes.
(§12) Plates are read on a PerkinElmer Envision, measuring TR-FRET between the complex formed between the GST-tagged PH domain and biotinylated PIP3 which both recruit fluorophores (Europium-labelled anti-GST & Strep-APC respectively). In the […] of an inhibitor, this complex is disrupted by the competitive action of non-biotinylated PIP3 (formed in the assay by the phosphorylation of PIP2 by the kinase & ATP). From this, the ratio of acceptor/donor was calculated (λex=317 nm, Δem donor=615 nm, Δem acceptor=665 nm) and used for data analysis.

PI3Kδ in CD4+ T cells = experiment: Cellular washout in CD4+ T cells (αCD3 stimulation, IFNγ readout); assay type: cell-based, human; conditions: IC50 curve 48 h after washing cells versus no wash; five donors
Method: CD4+T cells were isolated from leukodepletion filter samples taken from healthy volunteers using Histopaque 1077 (Sigma Aldrich). Briefly, blood was allowed to drip into a 50 mL falcon tube and mixed with PBS (40 mL). 20 mL of diluted blood was then slowly layered onto 15 mL of Histopaque in a 50 mL falcon tube, which was then centrifuged at 800 rcf for 20 min at room temperature. The PBMC layer was then collected with a pasteur pipette into a new 50 mL falcon tube, and up to 50 mL of PBS was added. Cells were centrifuged at 300-400 rcf for 10 min at room temperature, supernatant was discarded and a second washing step was performed with PBS. Cells were then resuspended in 40 mL PBS+0.5% Bovine Serum Albumin (BSA). Isolation of CD4+T cells was performed according to manufacturer's protocol (Miltenyi Biotec, 130-096-533). 1×10^6 CD4+T cells were dispensed into a 24 well plate with a final volume of 1 mL per well. Compounds at 1000× the final assay concentration, or DMSO, were then added to wells and cells were incubated for 2 h. 2×10^5 cells and media was added to a 96-well plate (in duplicate) and classified as no-wash. […] Supernatant and cells were centrifuged at 800 rcf for 5 min and 120 μL of supernatant was collected and analysed using MSD IFNγ kit as detailed above for the human whole-blood assay. […]

PI3Kδ [2] = molecular target: T1, PI3Kδ; experiment: PI3Kδ jump dilution experiment; assay type: biochemical; conditions: 15 min incubation, 100-fold dilution, read for 30 minutes
Method: Irreversibility of the PI3Kδ-Inhibitor complex, and reversibility of the non-covalent controls, was determined by jump-dilution assay as follows:
PI3Kδ enzyme was made up to a 100× assay concentration (final assay concentration=6 nM) in buffer solution (contains 50 mM HEPES pH 7.0 (NaOH), 150 mM NaCl, 10 mM MgCl2, 2.3 mM sodium cholate, 10 μM CHAPS made up in milliQ water).
100× enzyme solution was added to compound wells (20 μL/well), and incubated for 15 mins, after which point the assay was diluted 100-fold with commercially available ADP QUEST substrate solution, available from DiscoverX (calatog number: 90-0071), (3200 μL DiscoverX Reagent A, 6400 μL DiscoverX Reagent B, 1 mM ATP and 40 μM PIP2). Production of fluorescence signal was then measured immediately using a Tecan Safire II plate reader at 30 second intervals for 30 minutes (λex=544 nm, λem=590 nm).

PI3Kγ = PI3Kγ (Homo sapiens, UniProt P48736); experiment: PI3K HTRF assay, PI3K-gamma; assay type: biochemical; conditions: read-out: pIC50 PI3Kγ (converted); also: 15 µM ATP
Chain of PI3Kγ (P48736 whole entry, species assumed): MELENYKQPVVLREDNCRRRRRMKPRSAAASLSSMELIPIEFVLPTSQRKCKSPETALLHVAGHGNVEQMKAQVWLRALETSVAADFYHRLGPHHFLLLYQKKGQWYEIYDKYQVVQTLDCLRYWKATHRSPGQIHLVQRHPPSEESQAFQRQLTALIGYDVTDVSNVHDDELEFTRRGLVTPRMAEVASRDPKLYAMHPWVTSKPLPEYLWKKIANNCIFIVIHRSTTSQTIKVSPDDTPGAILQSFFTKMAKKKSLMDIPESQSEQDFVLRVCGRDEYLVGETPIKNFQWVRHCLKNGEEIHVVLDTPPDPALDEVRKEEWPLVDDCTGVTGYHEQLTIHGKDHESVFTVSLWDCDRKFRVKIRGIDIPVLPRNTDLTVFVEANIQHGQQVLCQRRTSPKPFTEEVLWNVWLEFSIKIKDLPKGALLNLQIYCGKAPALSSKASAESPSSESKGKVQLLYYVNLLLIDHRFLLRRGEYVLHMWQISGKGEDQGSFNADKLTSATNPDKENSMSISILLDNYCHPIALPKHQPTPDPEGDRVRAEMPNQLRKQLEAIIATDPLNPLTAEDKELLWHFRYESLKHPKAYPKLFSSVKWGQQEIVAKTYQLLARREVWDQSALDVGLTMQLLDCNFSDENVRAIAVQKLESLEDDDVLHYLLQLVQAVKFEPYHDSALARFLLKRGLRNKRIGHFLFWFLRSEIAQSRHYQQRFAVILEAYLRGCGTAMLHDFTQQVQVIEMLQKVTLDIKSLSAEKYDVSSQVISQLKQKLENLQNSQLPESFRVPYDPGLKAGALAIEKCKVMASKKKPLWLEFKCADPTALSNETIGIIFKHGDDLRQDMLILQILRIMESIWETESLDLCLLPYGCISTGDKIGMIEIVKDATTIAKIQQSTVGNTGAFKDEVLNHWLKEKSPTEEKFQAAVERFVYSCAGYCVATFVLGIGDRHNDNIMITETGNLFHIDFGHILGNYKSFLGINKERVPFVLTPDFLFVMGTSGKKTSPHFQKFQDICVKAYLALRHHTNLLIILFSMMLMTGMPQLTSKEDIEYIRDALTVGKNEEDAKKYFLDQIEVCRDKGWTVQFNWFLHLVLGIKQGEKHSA
Method: as §1, §2, §3, §4, §5, §6, §7, §8, §9, §10, §11, §12

PI3Kα = PI3Kα (Homo sapiens, UniProt P42336); experiment: PI3K HTRF assay, PI3K-alpha; assay type: biochemical; conditions: read-out: pIC50 PI3Kα (converted); also: 250 µM ATP
Chain of PI3Kα (P42336 whole entry, species assumed): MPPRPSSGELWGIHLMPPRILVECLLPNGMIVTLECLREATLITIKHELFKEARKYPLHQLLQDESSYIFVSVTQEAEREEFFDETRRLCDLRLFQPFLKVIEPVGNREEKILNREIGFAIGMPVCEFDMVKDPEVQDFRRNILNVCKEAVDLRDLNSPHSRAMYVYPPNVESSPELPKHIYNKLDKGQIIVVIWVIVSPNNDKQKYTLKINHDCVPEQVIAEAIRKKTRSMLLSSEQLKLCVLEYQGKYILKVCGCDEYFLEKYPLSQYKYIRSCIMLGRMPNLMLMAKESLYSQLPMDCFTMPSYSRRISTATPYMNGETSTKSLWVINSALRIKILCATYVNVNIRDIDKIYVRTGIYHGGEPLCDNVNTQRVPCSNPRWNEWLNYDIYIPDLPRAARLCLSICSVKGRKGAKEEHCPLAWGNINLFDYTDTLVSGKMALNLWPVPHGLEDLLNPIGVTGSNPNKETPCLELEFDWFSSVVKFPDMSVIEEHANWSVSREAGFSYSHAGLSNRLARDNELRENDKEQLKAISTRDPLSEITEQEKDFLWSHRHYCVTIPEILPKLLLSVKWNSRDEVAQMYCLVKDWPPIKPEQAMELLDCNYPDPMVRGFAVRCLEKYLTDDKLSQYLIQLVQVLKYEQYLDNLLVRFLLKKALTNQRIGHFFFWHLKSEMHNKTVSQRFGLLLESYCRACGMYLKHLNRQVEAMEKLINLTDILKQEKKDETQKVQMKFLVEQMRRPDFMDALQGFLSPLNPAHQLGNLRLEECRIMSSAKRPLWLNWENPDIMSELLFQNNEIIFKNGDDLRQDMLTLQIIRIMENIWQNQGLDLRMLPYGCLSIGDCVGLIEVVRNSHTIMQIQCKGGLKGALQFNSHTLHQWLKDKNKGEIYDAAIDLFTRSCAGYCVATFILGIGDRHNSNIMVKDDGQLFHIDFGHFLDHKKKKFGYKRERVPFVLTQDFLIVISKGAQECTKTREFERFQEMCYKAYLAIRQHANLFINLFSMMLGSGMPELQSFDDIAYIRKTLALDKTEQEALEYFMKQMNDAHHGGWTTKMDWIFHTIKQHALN
Chain of PI3Kα (P27986 whole entry partner, species assumed): as the sequence (P27986 whole entry partner, species assumed) above
Method: as §1, §2, §3, §4, §5, §6, §7, §8, §9, §10, §11, §12

T1 sequence (O00329 whole entry): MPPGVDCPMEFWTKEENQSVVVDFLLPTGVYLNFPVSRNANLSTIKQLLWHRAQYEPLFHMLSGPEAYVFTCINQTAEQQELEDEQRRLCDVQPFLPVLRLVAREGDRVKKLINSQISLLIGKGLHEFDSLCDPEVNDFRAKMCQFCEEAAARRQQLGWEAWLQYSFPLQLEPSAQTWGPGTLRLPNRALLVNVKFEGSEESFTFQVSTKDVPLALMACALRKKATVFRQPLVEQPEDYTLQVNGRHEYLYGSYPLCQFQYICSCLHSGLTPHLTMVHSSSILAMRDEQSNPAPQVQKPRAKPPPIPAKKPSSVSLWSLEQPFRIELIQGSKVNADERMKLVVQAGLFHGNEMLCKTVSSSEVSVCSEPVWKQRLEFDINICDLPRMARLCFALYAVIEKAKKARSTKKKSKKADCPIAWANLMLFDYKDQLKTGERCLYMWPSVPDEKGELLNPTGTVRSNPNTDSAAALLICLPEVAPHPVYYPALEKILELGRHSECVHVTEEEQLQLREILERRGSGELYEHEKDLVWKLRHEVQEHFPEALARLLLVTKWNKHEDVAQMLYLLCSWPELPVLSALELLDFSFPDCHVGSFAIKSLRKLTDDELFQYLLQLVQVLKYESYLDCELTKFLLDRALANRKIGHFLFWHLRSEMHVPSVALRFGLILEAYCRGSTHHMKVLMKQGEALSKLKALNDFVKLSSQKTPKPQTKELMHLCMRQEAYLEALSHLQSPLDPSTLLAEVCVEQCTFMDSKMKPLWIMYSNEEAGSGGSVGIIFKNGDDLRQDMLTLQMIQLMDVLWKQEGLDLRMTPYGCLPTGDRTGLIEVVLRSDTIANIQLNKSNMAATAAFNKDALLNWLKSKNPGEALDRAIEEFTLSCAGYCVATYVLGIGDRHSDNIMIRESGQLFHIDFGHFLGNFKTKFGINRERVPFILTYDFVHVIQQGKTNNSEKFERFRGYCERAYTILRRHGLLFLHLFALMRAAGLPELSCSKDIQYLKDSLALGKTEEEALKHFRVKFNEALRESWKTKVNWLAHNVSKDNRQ
T1 sequence (P27986 whole entry partner): as the sequence (P27986 whole entry partner, species assumed) above

## COc1ncc(-c2cc(-c3ncc(CN4CCN(C(C)C)CC4)o3)c3cn[nH]c3c2)cc1C(=O)Oc1ccc(F)cc1 [Example 7, 4-Fluorophenyl 5-(4-(5-((4-isopropylpiperazin-1-yl)methyl)oxazol-2-yl)-1H-indazol-6-yl)-2-methoxynicotinate]
PI3Kδ [1]; 10:1 inhibitor:protein ratio, after 20 h (overnight)
  Additional adducts on PI3Kδ: no additional adducts
PI3Kδ [1]; 10:1 inhibitor:protein, incubated overnight
  Covalent modification of PI3Kδ (protein mass spectrometry): covalently modified
PI3Kδ [1]; competitor 10:1 for 15 min, then 2 equivalents of covalent inhibitor, quenched at 5 min
  Adduct formation after preincubation of enzyme with potent ATP-competitive inhibitor: prevented covalent modification; also recorded: attentuated formation of this adduct
PI3Kβ
  IC50: 5.01 µM
PI3Kδ in CD4+ T cells
  Duration of action at PI3Kδ in CD4+ T cells: at least 48 h
PI3Kδ [2]
  Recovery of enzyme activity after jump dilution: No recovery of activity
PI3Kγ
  IC50: 15.8 µM
PI3Kα
  IC50: 3.16 µM
